Measured values taken from patent publication US20250009694A1, “METHODS AND PHARMACEUTICAL COMPOSITIONS FOR REPAIRING INTESTINAL MUCOSAL” (INSTITUT NATIONAL DE LA SANTÉ ET DE LA RECHERCHE MÉDICALE, priority 2021, published 2025).

Test system: DSS-colitis in WT mice
Test: DSS-induced acute colitis in WT C57BL/6 mice after pre-treatment
Format: in vivo, mouse
Conditions: CEA alone, Pan alone or coadministration

SMILES: CC(C)(CO)[C@@H](O)C(=O)NCCC(=O)O [Pan, 3-[(2R)-(2,4-Dihydroxy-3,3-dimethylbutanoyl)amino]propanoic acid]
- influence on DSS-colitis, single or combined administration: delayed colitis development

SMILES: NCCS [CEA, 2-aminoethanethiol]
- influence on DSS-colitis, single or combined administration: poor influence
